The results in this text go back to PubChem BioAssay (NCI).

Among the test systems are IGROV1 ovarian; SK-MEL-5 melanoma; CCRF-CEM leukemia; MOLT-4 leukemia; NCI/ADR-RES ovarian; MDA-MB-231 breast; HOP-62 NSCLC; TK-10 renal; UO-31 renal; A498 renal.
What all share (assay): DTP human tumour cell line panel, 48 h

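Briefly, cells in 96-well plates were exposed to five compound concentrations for 48 h, and endpoints were estimated by linear interpolation. GI50 = concentration required for 50% inhibition of growth. TGI: concentration producing complete growth inhibition.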 Bounds are passed on as bounds.

Consider `NC(Cc1ccccc1)c1nccs1` (centres undefined), for which the TGI with IGROV1 ovarian, with SK-MEL-5 melanoma, in the assay with CCRF-CEM leukemia, in the assay with MOLT-4 leukemia, in the assay with NCI/ADR-RES ovarian and in the assay with MDA-MB-231 breast was above 100 µM throughout. The TGI with HOP-62 NSCLC, in the assay on TK-10 renal, in the assay with UO-31 renal and in the assay on A498 renal was above 100 µM in each case.

Consider `COc1ccc2[nH]c(C(=O)OCc3ccc4c(Cl)cc(Cl)c(O)c4n3)cc2c1`, for which the GI50 (as a rule, the concentration that inhibits growth by half) was 0.601 µM with IGROV1 ovarian; 1.65 µM in the assay with SK-MEL-5 melanoma; 0.312 µM in the assay on CCRF-CEM leukemia; 1.03 µM in the assay on MOLT-4 leukemia; 2.08 µM in the assay on NCI/ADR-RES ovarian; 1.02 µM with MDA-MB-231 breast. The GI50 in the assay with HOP-62 NSCLC is 1.33 µM; in the assay on TK-10 renal, 1.68 µM; in the assay on UO-31 renal, 0.378 µM; with A498 renal, 1.91 µM. Moreover, the TGI (commonly the concentration at which net growth stops) in the assay on IGROV1 ovarian was found to be 1.95 µM; with SK-MEL-5 melanoma it was 3.02 µM; with CCRF-CEM leukemia, 2.08 µM; in the assay with MOLT-4 leukemia, 3.72 µM; with NCI/ADR-RES ovarian, 8.16 µM; with MDA-MB-231 breast it was 2.18 µM. Also, the TGI was found to be 2.8 µM in the assay on HOP-62 NSCLC, 3.05 µM in the assay with TK-10 renal, 1.96 µM in the assay on UO-31 renal and 3.73 µM in the assay with A498 renal.

Take `O=P(O)(O)OCC1OC(n2cnc3c(NCc4ccccc4)ncnc32)C(O)C1O` (centres undefined): the GI50 in the assay on IGROV1 ovarian is 3.52 µM; with SK-MEL-5 melanoma it was 17 µM; in the assay with CCRF-CEM leukemia, 3.76 µM; with MOLT-4 leukemia it was 0.673 µM; in the assay with NCI/ADR-RES ovarian it was 1.19 µM; with MDA-MB-231 breast it was 0.35 µM. For the same molecule, the GI50 with HOP-62 NSCLC was 1.74 µM; with TK-10 renal, 2.15 µM; with UO-31 renal it was 3.38 µM; in the assay on A498 renal it was 2.05 µM. For the same molecule, the total growth inhibition concentration (TGI) in the assay on IGROV1 ovarian was 23 µM; in the assay on SK-MEL-5 melanoma, above 100 µM; in the assay on CCRF-CEM leukemia, above 100 µM; with MOLT-4 leukemia, above 100 µM; with NCI/ADR-RES ovarian it was 30.7 µM; in the assay with MDA-MB-231 breast, 1.35 µM. Further, the TGI in the assay on HOP-62 NSCLC was found to be 27.9 µM; in the assay on TK-10 renal, 30.2 µM; in the assay with UO-31 renal, 32.4 µM; in the assay with A498 renal, 7.44 µM.

With `CC/C(=C/c1ccc(OC)cc1OC)[N+](=O)[O-]`, the GI50 in the assay with IGROV1 ovarian is 3.4 µM; in the assay with SK-MEL-5 melanoma, 4.12 µM; in the assay on CCRF-CEM leukemia, 2.05 µM; with MOLT-4 leukemia it was 3.73 µM; in the assay with NCI/ADR-RES ovarian, 3.17 µM; with MDA-MB-231 breast it was 3.08 µM. Also, the GI50 in the assay with HOP-62 NSCLC is 2.38 µM; in the assay with TK-10 renal it was 2.62 µM; in the assay with UO-31 renal, 1.57 µM; with A498 renal, 2.75 µM. Besides, the concentration for total growth inhibition (TGI) was 11.5 µM in the assay with IGROV1 ovarian; 14 µM in the assay with SK-MEL-5 melanoma; 7.01 µM with CCRF-CEM leukemia; 35.6 µM with MOLT-4 leukemia; 12.6 µM in the assay with NCI/ADR-RES ovarian; 8.96 µM with MDA-MB-231 breast. In addition, the TGI was 7.14 µM in the assay with HOP-62 NSCLC, 6.5 µM in the assay on TK-10 renal, 3.09 µM in the assay with UO-31 renal and 10.2 µM with A498 renal.

For `C=C1C(=O)O[C@H]2C[C@@H]1C(=O)CC(C)CCCC(C)=CCC[C@@]2(C)O` (some centres undefined), the TGI in the assay with IGROV1 ovarian, with SK-MEL-5 melanoma, in the assay with CCRF-CEM leukemia, with MOLT-4 leukemia, with NCI/ADR-RES ovarian and with MDA-MB-231 breast was above 25 µM in each case. Further, the TGI with HOP-62 NSCLC, in the assay with TK-10 renal, in the assay on UO-31 renal and in the assay with A498 renal was above 25 µM throughout.

On to `O=c1[nH]c(=O)n(C2CC(O)C(CO)O2)cc1C(F)(F)F` (centres undefined), for which the GI50 is 9.02 µM in the assay on IGROV1 ovarian; 0.399 µM in the assay with SK-MEL-5 melanoma; 0.557 µM in the assay on CCRF-CEM leukemia; 1.65 µM in the assay with MOLT-4 leukemia; 4.81 µM in the assay with NCI/ADR-RES ovarian; above 100 µM with MDA-MB-231 breast. The GI50 is 3.68 µM in the assay on HOP-62 NSCLC, above 100 µM with TK-10 renal and 1.75 µM in the assay with UO-31 renal. Further, the TGI with IGROV1 ovarian, with SK-MEL-5 melanoma, with CCRF-CEM leukemia, with MOLT-4 leukemia, in the assay on NCI/ADR-RES ovarian and in the assay on MDA-MB-231 breast was above 100 µM each time. Moreover, the TGI was above 100 µM in the assay on HOP-62 NSCLC, above 100 µM in the assay with TK-10 renal, above 100 µM in the assay with UO-31 renal and above 92 µM in the assay with A498 renal.

With `COc1cc2c3c(n(CCCNCCCN)c(=O)c2cc1OC)-c1cc2c(cc1C3=O)OCO2`, the GI50 with IGROV1 ovarian is 2.69 µM; with SK-MEL-5 melanoma, 5.35 µM; with CCRF-CEM leukemia it was 0.22 µM; in the assay on MOLT-4 leukemia, 0.244 µM; with NCI/ADR-RES ovarian it was 22.9 µM; with MDA-MB-231 breast, 2.93 µM. Moreover, the GI50 with HOP-62 NSCLC is 1.6 µM; in the assay with TK-10 renal, 9.74 µM; in the assay on UO-31 renal it was 15.4 µM; with A498 renal, 18 µM. For the same molecule, the TGI came to 18.9 µM with IGROV1 ovarian; 19 µM in the assay on SK-MEL-5 melanoma; 15.8 µM with CCRF-CEM leukemia; 0.688 µM with MOLT-4 leukemia; 98.7 µM in the assay on NCI/ADR-RES ovarian; 12.6 µM with MDA-MB-231 breast. In addition, the TGI with HOP-62 NSCLC came out at 13 µM; with TK-10 renal, 27.9 µM; in the assay on UO-31 renal it was 38.5 µM; in the assay with A498 renal it was 35.6 µM.
